Compound | melting point [°C]
COC(=O)Nc1ccc2occ(CCNC(C)=O)c2c1 [Example 58, Methyl N-{3-[2-(acetylamino)ethyl]benzo[b]furan-5-yl}carbamate] | 138 to 140
COC(=O)c1ccc2occ(CCNC(=O)C3CCCC3)c2c1 [Example 64, Methyl 3-{2-[(cyclopentylcarbonyl)amino]ethyl}1-benzofuran-5-carboxylate] | 122 to 123
COC(=O)c1ccc2occ(CCNC(=O)C3CC3)c2c1 [Example 65, Methyl 3-{2-[(cyclopropylcarbonyl)amino]ethyl}-1-benzofuran-5-carboxylate] | 154 to 155
NC(=O)c1ccc2occ(CCNC(=O)C3CC3)c2c1 [Example 68, 3-{2-[(Cyclopropylcarbonyl)amino]ethyl}-1-benzofuran-5-carboxamide] | 209 to 210
NC(=O)c1ccc2occ(CCNC(=O)c3ccco3)c2c1 [Example 69, 3-[2-(2-Furoylamino)ethyl]-1-benzofuran-5-carboxamide] | 110 to 112
CNC(=O)c1ccc2occ(CCNC(C)=O)c2c1 [Example 71, 3-[2-(Acetylamino)ethyl]-N-methyl-1-benzofuran-5-carboxamide] | 158 to 159
CNC(=O)c1ccc2occ(CCNC(=O)C3CCCC3)c2c1 [Example 72, 3-{2-[(Cyclopentylcarbonyl)amino]ethyl}-N-methyl-1-benzofuran-5-carboxamide] | 170 to 171
CC(=O)NCCc1coc2ccc(NC(=O)OC(C)(C)C)cc12 [Example 76, tert-Butyl 3-[2-(acetylamino)ethyl]-1-benzofuran-5-yl-carbamate] | 146 to 148

— patent publication US7183318B2, “Substituted cyclic compounds, preparation method and pharmaceutical compositions containing them” (Les Laboratoires Servier, priority 1998, dated 2007)
